From patent publication US7700601B2, “Substituted indazoles of formula 1.0 that are kinase inhibitors” (Schering Corporation, priority 2006, dated 2010)
Values joined by “and” are separate entries in the source; they are usually repeats but may differ in a detail not shown here. Identical values can stand only once.

target: T1, Akt1 (Homo sapiens, UniProt P31749); experiment: Akt1 kinase assay (33P phosphorylation of biotinylated Gsk3-derived peptide, streptavidin Flash plates); assay type: biochemical; settings: Table 2; active recombinant Akt1
T1 construct: (His)6 (N); made in house; host or cells: Sf9 insect cells (baculovirus, pBlueBacHis2B)
T1 sequence (P31749 whole entry): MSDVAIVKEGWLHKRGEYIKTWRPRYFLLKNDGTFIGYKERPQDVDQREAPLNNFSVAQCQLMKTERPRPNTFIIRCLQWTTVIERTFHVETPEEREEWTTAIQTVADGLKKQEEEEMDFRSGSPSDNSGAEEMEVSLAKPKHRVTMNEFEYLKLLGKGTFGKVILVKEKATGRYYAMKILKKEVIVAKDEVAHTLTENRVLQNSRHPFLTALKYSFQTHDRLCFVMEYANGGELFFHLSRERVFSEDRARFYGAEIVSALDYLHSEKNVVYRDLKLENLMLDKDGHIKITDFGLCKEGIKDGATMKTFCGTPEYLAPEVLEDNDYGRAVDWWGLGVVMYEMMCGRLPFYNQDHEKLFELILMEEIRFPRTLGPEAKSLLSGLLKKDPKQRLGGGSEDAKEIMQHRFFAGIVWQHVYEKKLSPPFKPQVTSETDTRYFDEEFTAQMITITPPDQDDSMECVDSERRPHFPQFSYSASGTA
Text: The assay described below measures the phosphorylation of a biotinylated peptide by active recombinant Akt1 and other kinase isoforms. The biotinylated peptide contains a consensus sequence derived from Akt substrate Gsk3 (Glycogen synthase kinase 3). The ^33P-labeled peptide substrate was captured by streptavidin-coated Flash plates.
Active recombinant Akt1 was expressed in Sf9 insect cells and purified as described by Kumar et al., Biochim. Biophys. Acta. Jun. 15, 2001, 1526(3), 257-268. Biotinylated peptide of the sequence Bio-ahx-RPRAASF was purchased from Syn Pep (Dublin, Calif., USA).
Human Akt1 cDNA was amplified from a marathon-ready human lung cDNA library (Clonetech) using nested oligo primers as described below. The first round of amplification was carried out using the following primers; Akt1F1 ([…]) (SEQ ID NO: 1 and Akt1R1 (TCCATC […]) (SEQ ID NO: 2) and for the second round amplification, the primers of the following sequence were used; Akt1F2 (GGATCCTCGG […]) (SEQ ID NO: 3) and AKT1R2 (GGTACCATCGTC […]) (SEQ ID NO: 4). The PCR product was subcloned into pCRScript plasmid as a BamHI/KpnI fragment and the sequence of the cDNA was confirmed by DNA sequencing. This plasmid was used as a template for reamplification of Akt1 using appropriate primers for subcloning into pBlueBaHis2B into BamH1/EcoRI sites to generate an in frame fusion to (His)6 tag and an anti-Xpress antibody epitope tag at the N-terminus. This construct was sequenced to verify the junction sequences and used for generating a recombinant baculovirus. Growth of the recombinant virus, amplification and determination of viral titer were carried out according to the instructions from the manufacturer (InVitrogen, Calif.).
Viral stocks were used to infect large scale Sf9 cells at a multiplicity of infection (MOI) of 2.5. Cells were maintained at 27° C. for 60 h and okadaic acid was added to the cultures to a concentration of 50 nM. Cells were harvested 4 h hours later by centrifugation at 1200 rpm for 30 min followed by freezing at −80° C. until further use. All purification steps were carried out at 4° C. Whole cell pellets were suspended in buffer A (20 mM sodium phosphate buffer pH 7.8, 500 mM NaCl, 1 mM sodium vanadate, 5 mM sodium fluoride, 40 mM β-glycerophosphate, 10 mM imidazole and protease inhibitor cocktail) and lysed using a microfluidizer. The cell extract was centrifuged at 16,000×g for 10 min to remove the debris and directly loaded onto Ni-NTA Superflow resin using a FPLC pump operated at 1 ml/min. The column was washed once with buffer A, once with wash buffer B (20 mM sodium phosphate pH 6.0, 1 mM sodium vanadate, 5 mM sodium fluoride and protease cocktail) and once with wash buffer B containing 0.05% Tween-20 followed by washing with buffer A until OD260 returned to basal level. Proteins were eluted with buffer A containing 200 mM imidazole. Fractions were analyzed by electrophoresis on 10% denaturing polyacrylamide gels and fractions containing 85% pure protein band at 60 KDa were pooled and dialyzed against buffer C (20 mM Tris-HCl pH 7.5, 0.5 mM EDTA, 2 mM DTT, 145 mM NaCl, 0.1 mM sodium vanadate, 5 mM sodium fluoride, 10 mM β-glycerophosphate and 20% glycerol). Purified protein was stored as aliquots at −80° C. Protein concentrations were determined using BCA protein assay reagent A (Catalog #23228). To examine the identity of the proteins, 2 μg of purified protein was electrophoresed on SDS-polyacrylamide gels and stained with coomassie blue dye or transferred to nitrocellulose membrane and probed with anti-Akt and anti-phospho-specific Akt antibodies using enhanced chemiluminescence (ECL) reagent according to the protocol described by the manufacturer (Amersham).
The kinase assay was performed in 96 well plates at room temperature. Assay solutions and plates were preincubated at room temperature for 5 min. […]

Row | Structure (SMILES) | IC50 [nM]
1 | Cc1n[nH]c2ccc(-c3cnc(N)c(NCCN)n3)cc12 | 74
2 | Cc1n[nH]c2ccc(-c3cncc(N4CCN[C@@H](Cc5ccccc5)C4)n3)cc12 [Example 2, 2-[(S)-3-benzylpiperazinyl]-6-[3-methyl-1H-indazol-5-yl]pyrazine] | 1
3 | Cc1n[nH]c2ccc(-c3cnc(NCc4ccccc4Cl)c(N4CCNCC4)n3)cc12 [drawing 105] | 129
4 | Cc1n[nH]c2ccc(-c3cnc(NCc4cccc(F)c4)c(N4CCNCC4)n3)cc12 [drawing 103] | 44
5 | Cc1n[nH]c2ccc(-c3cnc(NCc4ccccc4)c(N4CCN[C@@H](Cc5ccccc5)C4)n3)cc12 [drawing 104] | 76
6 | COc1cccc(CNc2ncc(-c3ccc4[nH]nc(C)c4c3)nc2N2CCNCC2)c1 [drawing 109] | 148
7 | Cc1ccccc1CNc1ncc(-c2ccc3[nH]nc(C)c3c2)nc1N1CCNCC1 [drawing 108] | 140
8 | Cc1n[nH]c2ccc(-c3cnc(NCc4ccccc4)c(NCCN)n3)cc12 | 79
9 | Cc1n[nH]c2ccc(-c3cnc(NCc4ccccc4)c(N4CCNCC4)n3)cc12 [drawing 101] | 46
10 | Cc1n[nH]c2ccc(-c3cnc(N)c(N4CCN[C@@H](Cc5ccccc5)C4)n3)cc12 [drawing 106] | 55

same assay, conditions: active recombinant Akt1, 2 μM cold ATP, 2 hr, room temperature

Row | Structure (SMILES) | IC50
11 | Cc1n[nH]c2ccc(-c3cnc(NCc4ccc(F)cc4)c(N4CCNCC4)n3)cc12 [Example 43] | 0.98 to 240 nM
12 | Cc1n[nH]c2ccc(-c3cnc(NCc4ccccc4Cl)c(N4CCNCC4)n3)cc12 [Example 31] | 0.98 to 240 nM
13 | Cc1n[nH]c2ccc(-c3cncc(N4CCN[C@@H](Cc5ccccc5)C4)n3)cc12 [Example 2, 2-[(S)-3-benzylpiperazinyl]-6-[3-methyl-1H-indazol-5-yl]pyrazine] | 0.98 to 240 nM and 0.98 to 46 nM and 0.98 nM
14 | Cc1n[nH]c2ccc(-c3cnc(NCc4ccccc4)c(N4CCN[C@@H](Cc5ccccc5)C4)n3)cc12 [Example 5] | 0.98 to 240 nM
15 | Cc1n[nH]c2ccc(-c3cnc(NCc4ccc(Cl)cc4)c(N4CCNCC4)n3)cc12 [Example 29] | 0.98 to 240 nM
16 | Cc1n[nH]c2ccc(-c3cnc(N(C)Cc4ccccc4)c(N4CCNCC4)n3)cc12 [Example 27] | 0.98 to 240 nM
17 | COc1cccc(CNc2ncc(-c3ccc4[nH]nc(C)c4c3)nc2N2CCNCC2)c1 [Example 34] | 0.98 to 240 nM
18 | Cc1n[nH]c2ccc(-c3cnc(NCc4c(F)cccc4Cl)c(N4CCNCC4)n3)cc12 [Example 50] | 0.98 to 240 nM
19 | Cc1n[nH]c2ccc(-c3cnc(NCc4ccccc4F)c(N4CCNCC4)n3)cc12 [Example 41] | 0.98 to 240 nM
20 | Cc1n[nH]c2ccc(-c3cnc(NCc4cccc(Cl)c4)c(N4CCNCC4)n3)cc12 [Example 30] | 0.98 to 240 nM
21 | Cc1n[nH]c2ccc(-c3cnc(NCc4ccccc4)c(N4CCNCC4)n3)cc12 [Example 18] | 0.98 to 240 nM and 0.98 to 46 nM
22 | Cc1n[nH]c2ccc(-c3cnc(N)c(N4CCNCC4)n3)cc12 [Example 12] | 0.98 to 240 nM
23 | Cc1n[nH]c2ccc(-c3cnc(N)c(N4CCN[C@@H](Cc5ccccc5)C4)n3)cc12 [Example 1, 2-amino-3-[(S)-3-benzylpiperazinyl]-5-(3-methyl-1H-indazol-5-yl)pyrazine] | 0.98 to 240 nM
24 | Cc1n[nH]c2ccc(-c3cnc(NCc4cccc(F)c4)c(N4CCNCC4)n3)cc12 [Example 42] | 0.98 to 240 nM and 0.98 to 46 nM
25 | COc1ccccc1CNc1ncc(-c2ccc3[nH]nc(C)c3c2)nc1N1CCNCC1 [Example 35] | 0.98 to 240 nM
26 | Cc1n[nH]c2ccc(-c3cnc(N)c(N4CCN[C@H](c5ccccc5)C4)n3)cc12 [Example 8] | 0.98 to 240 nM
27 | Cc1ccccc1CNc1ncc(-c2ccc3[nH]nc(C)c3c2)nc1N1CCNCC1 [Example 38] | 0.98 to 240 nM
